What was measured:
Assay in all cases: relative viability (nuclei count vs DMSO), 5 days (fraction); higher = more cells survive
IPA-3 + Phenformin = compound: C1=CC=C2C(=C1)C=CC(=C2SSC3=C(C=CC4=CC=CC=C43)O)O [IPA-3] + N=C(N)NC(=N)NCCc1ccccc1 [Phenformin] (partner 250 µM)
In short: (§1)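 For relative viability, nuclei counts in treated wells were divided by those in vehicle wells. Lung cancer cell lines had been pin-tool dosed in 1536-well plates the day after seeding and cultured for 5 days, then fixed and stained in one step (final 0.05% Triton X-100, 1% formaldehyde, 1 ug/ml Hoechst) and imaged at 4×. Doses were one drug alone or a fixed anchor-drug dose plus five library-drug doses (not always all listed) in √10 steps, and values are duplicate-plate medians.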

Doramapimod + Luminespib = compound: Cc1ccc(-n2nc(C(C)(C)C)cc2NC(=O)Nc2ccc(OCCN3CCOCC3)c3ccccc23)cc1 [Doramapimod] + CCNC(=O)c1noc(-c2cc(C(C)C)c(O)cc2O)c1-c1ccc(CN2CCOCC2)cc1 [Luminespib] (partner 0.01 µM)
In short: as §1

IPA-3 + Navitoclax = compound: C1=CC=C2C(=C1)C=CC(=C2SSC3=C(C=CC4=CC=CC=C43)O)O [IPA-3] + CC1(C)CCC(c2ccc(Cl)cc2)=C(CN2CCN(c3ccc(C(=O)NS(=O)(=O)c4ccc(N[C@H](CCN5CCOCC5)CSc5ccccc5)c(S(=O)(=O)C(F)(F)F)c4)cc3)CC2)C1 [Navitoclax] (partner 0.5 µM)
In short: as §1

Doramapimod + Trametinib = compound: Cc1ccc(-n2nc(C(C)(C)C)cc2NC(=O)Nc2ccc(OCCN3CCOCC3)c3ccccc23)cc1 [Doramapimod] + CC(=O)Nc1cccc(-n2c(=O)n(C3CC3)c(=O)c3c(Nc4ccc(I)cc4F)n(C)c(=O)c(C)c32)c1 [Trametinib] (partner 0.02 µM)
In short: as §1

Cell Line	relative viability (IPA-3 + Phenformin; first compound 0.2 µM)	relative viability (IPA-3 + Phenformin; first compound 0.6325 µM)	relative viability (IPA-3 + Phenformin; first compound 2 µM)	relative viability (IPA-3 + Phenformin; first compound 6.325 µM)	relative viability (IPA-3 + Phenformin; first compound 20 µM)	relative viability (Doramapimod + Luminespib; first compound 0.02 µM)	relative viability (Doramapimod + Luminespib; first compound 0.06325 µM)	relative viability (Doramapimod + Luminespib; first compound 0.2 µM)	relative viability (Doramapimod + Luminespib; first compound 0.6325 µM)	relative viability (Doramapimod + Luminespib; first compound 2 µM)	relative viability (IPA-3 + Navitoclax; first compound 0.2 µM)	relative viability (IPA-3 + Navitoclax; first compound 0.6325 µM)	relative viability (IPA-3 + Navitoclax; first compound 2 µM)	relative viability (IPA-3 + Navitoclax; first compound 6.325 µM)	relative viability (IPA-3 + Navitoclax; first compound 20 µM)	relative viability (Doramapimod + Trametinib; first compound 0.02 µM)	relative viability (Doramapimod + Trametinib; first compound 0.06325 µM)	relative viability (Doramapimod + Trametinib; first compound 0.2 µM)	relative viability (Doramapimod + Trametinib; first compound 0.6325 µM)	relative viability (Doramapimod + Trametinib; first compound 2 µM)
ABC-1	0.258	0.247	0.236	0.258	0.235	0.423	0.67	0.156	0.863	0.555										
IA-LM											0.793	0.683	0.765	0.601	0.392					
NCI-H322M	0.821	0.749	0.835	0.89	0.96	0.661	0.914	0.831	0.946	1.02	1.29	1.12	1.17	1.25	1.29	0.429	0.519	0.541	0.524	0.498
NCI-H1792	0.371	0.44			0.408	0.396	0.345	0.385	0.413	0.356	0.939	0.665	0.55	0.675	0.825	0.446	0.407	0.379	0.374	0.27
LXF-289	0.536	0.47	0.544	0.514	0.546	0.644	0.757	0.607	0.732	0.616	0.992	0.911	1.01	0.957	1.04	0.684	0.647	0.676	0.665	0.657
HCC-827	0.383	0.379	0.396	0.441	0.457	0.569	0.611	0.751	0.831	0.625	1.01	1.01	1	0.99	0.993	0.571	0.408	0.521	0.594	0.405
EMC-BAC-2	0.642	0.467	0.541	0.576	0.594	1.28	1.17	1.12	1.22	1.15	1.38	1.11	1.16	1.09	1.32	0.884	0.816	0.894	0.873	0.766
NCI-H520	0.817	0.63	0.369	0.512	0.712	0.195	0.212	0.24	0.206	0.232	1.16	0.971	0.863	1.02	1.12	0.648	0.59	0.72	0.723	0.536
NCI-H1755	0.675	0.582	0.622	0.612	0.557	0.354	0.426	0.411	0.431	0.22	1.07	1.01	1	1.03	1.02	0.849	0.887	0.751	0.761	0.714
NCI-H522	0.648	0.657	0.582	0.697	0.76	0.929	1.07	1	1.12	1.09						0.717	0.703	0.799	0.727	0.633
NCI-H1299											1.08	1.08	1.03	1.01	1.03					
NCI-H1563	0.703	0.644	0.655	0.727	0.735	0.449	0.548	0.535	0.48	0.481										
NCI-H661	0.31	0.266	0.293	0.259	0.272	0.99	0.917	0.986	0.914	0.909						0.642	0.58	0.598	0.732	0.512
Calu-6											0.794	0.839	0.833	0.753	0.536					
NCI-H650	0.492	0.511	0.457	0.463	0.451	0.869	0.83	0.827	0.853	0.713						0.963	0.977	0.988	1.05	0.978
NCI-H1703											1.71	0.991	1.05	1.13	0.765					
EBC-1											0.417	0.392	0.387	0.333	0.309					
NCI-H1648																0.435	0.46	0.508	0.582	0.402
SW 900	0.783	0.575	0.556	0.784	0.677	0.169	0.185	0.162	0.155	0.165						0.761	0.875	0.974	0.749	0.769
NCI-H2342	0.629	0.619	0.568	0.825	0.731	0.67	0.749	0.701	0.852	0.725						0.838	0.844	0.754	0.817	0.847
A549	0.197		0.142	0.189	0.298						1.27	1.21	1.39	1.28	1.18					
LCLC-103H	0.299	0.344	0.365	0.354	0.372	0.927	0.99	0.884	1.08	0.925						0.656	0.675	0.683	0.68	0.679
HCC-78	0.768	0.64	0.728	0.801	0.692						0.915	0.75	0.706	0.764	1.01	0.802	0.724	0.767	0.763	0.819
